Laboratory results reported in patent US11318113B2, “Compounds for the treatment of diseases linked to mitochondrial reactive oxygen species (ROS) production” (OP2 DRUGS, priority 2015, dated 2022).

Key:
[1] = tested on: other mitochondrial sites of ROS production (site IIIQO, site IF); assay: Mitochondrial ROS/H2O2 production (Amplex Red/HRP) after rotenone, antimycin A, myxothiazol; assay type: biochemical, rat; conditions: AOL 5 to 80 μM
Description: Rates of ROS/H2O2 production from heart mitochondria were assessed through the oxidation of the colorless, non-fluorescent indicator Amplex Red in the presence of exogenous horseradish peroxidase (HRP, EC 1.11.1.7, Sigma). H2O2 reacts with Amplex Red in a 1:1 stoichiometry, yielding the fluorescent compound resorufin (excitation: 560 nm; emission: 585 nm) which is stable once formed. Fluorescence was measured continuously with a spectro-fluorometer equipped with temperature control and stirring (SAFAS Xenius, Monaco). Isolated mitochondria (0.1 mg/mL) were incubated in the same experimental buffer than previously, supplemented with 15 μM Amplex Red and 10 μg/mL HRP. Glutamate (5 mM)/malate (2.5 mM) together with succinate (5 mM) were used as complex I and complex II substrates, respectively. Experiments were conducted under non-phosphorylating conditions in the presence of 15 μM atractyloside, i.e. under state IV conditions where mitochondrial membrane […]. […]
FIG. 3 illustrates the effect of the presence of increasing concentrations of AOL (from 5 to 80 μM) on ROS/H2O2 production measured under the different conditions defined in FIG. 2. […]

[2] = tested on: isolated mitochondria from rat heart; assay: Mitochondrial respiration / oxidative phosphorylation (oxygraph); assay type: biochemical; conditions: AOL 5 to 80 μM
Description: Male Wistar rats (250-325 g; obtained from Janvier Labs, Le Genest-Saint-Isle, France) were killed by stunning and cervical dislocation, and the heart was quickly removed and washed in cold isolation medium containing 100 mM sucrose, 180 mM KCl, 50 mM Tris, 5 mM MgCl2, 10 mM EDTA, and 0.1% (w/v) deffated BSA (pH 7.2).
Isolation of heart mitochondria was performed in a cold chamber. Before homogenization, hearts (about 1.5 g) were minced with scissors and treated for 5 min in 5 mL of the same medium supplemented with protease (2 mg of bacterial proteinase type XXIV per mL of isolation buffer) with stirring. The tissue suspension was poured into a 50-ml glass Potter homogenizer, diluted with 20 mL of isolation buffer, then homogenized for 3 min using a motorized Teflon pestle. The homogenate was filtered through bolting cloth (Sefar Nitex) to remove debris, and centrifuged at 8,000 g for 10 minutes. The resulting pellet was rinsed with 5 mL of isolation buffer, resuspended in 25 mL of the same buffer, then subjected to low speed centrifugation (400 g) for 8 min. The resulting supernatant was centrifuged twice at 7,000 g for 15 min to yield a washed mitochondrial pellet that was gently resuspended in 150 μL of isolation buffer. Protein concentration was determined by the Bradford method (Sigma, kit # B6916) using BSA as standard. Mitochondria were kept on ice at a final concentration of 40-50 mg/mL for less than 5 h.
Oxygen consumption rates of heart mitochondria (0.1 mg/mL), incubated in the absence or presence of AOL at increasing doses (from 0 to 80 μM final concentration), were recorded polarographically under constant stirring at 25° C. using a high resolution oximeter (Oxygraph-2K, Oroboros Instruments, Austria). The respiration medium consisted in 140 mM sucrose, 100 mM KCl, 1 mM EGTA, 20 mM MgCl2, 10 mM KH2PO4, and 1 g/L (w/v) BSA essentially fatty acid free (pH 7.2).
This has been carried out by using the now classical oxygraph method. Mitochondria were first incubated with various AOL concentrations (5 to 80 μM) then respiratory substrate was added (substrate state, black curve), followed by a saturating ADP concentration to get the maximal oxidative phosphorylation rate (grey curve), and finally the addition of atractyloside (ATR) which inhibits the ADP/ATP translocator and gives the mitochondrial leak rate under non-phosphorylating conditions (FIG. 1A). The other panels of FIG. 1B-D presents the results obtained with different respiratory substrate combinations: glutamate+malate which feed electrons to complex I, succinate (+rotenone) for complex II and glutamate+malate+succinate to feed electrons to both complexes. […]

[3] = stated as known; cited from earlier work

## COc1ccc(-c2cc(=S)ss2)cc1 [AOL, 5-(4-methoxyphenyl)-3H-1,2-dithiole-3-thione]
[1]
  ROS/H2O2 production under the other conditions: no statistical differences were observed
[2]
  mitochondrial oxidative phosphorylation and inner membrane integrity (leak rate, after ATR addition): absence of effect
[2]; glutamate and malate
  mitochondrial respiration under the different energetic states: no statistical differences
[2]; glutamate, malate and succinate
  mitochondrial respiration under the different energetic states: no statistical differences
[2]; succinate (+rotenone)
  mitochondrial respiration under the different energetic states: no statistical differences
[3]
  bioavailability: very short
